Experimental data reported in patent US4572916A, “Tablets” (priority 1979, dated 1986).
≈ marks a conversion by molar mass, not a printed value. Entries after “also recorded” stand apart in the source; their conditions may differ.

Experiments:
[1] = Flowability: flow of 100 g tablet mix through a 3/8 inch orifice funnel; type: physicochemical; details: for Time for 100 g of the tablet mix to flow through the 3/8 inch orifice funnel: no vibration, "No flow" = unable to flow completely without agitation
[2] = Tablet formation, integrity and fines during tabletting and handling; type: physicochemical
Description: 50 g isomaltulose, 4 g gum arabic, 1 g magnesium stearate and 13 g saccharin were dry mixed, giving a flowable tabletting powder. Tablets were formed by direct compression of the powder. […]

[3] = Tablets made using a 1/4 inch flat face punch; type: physicochemical; details: Example 6, aspirin tablets; for Tablet making results: 1/4 inch flat face punch
Experimental: (a) The aspirin was mixed with the carrier under test, taking care to avoid moisture pick-up. The flavour was added to the starch with thorough mixing. The magnesium stearate was then added to the starch and this combination blended, with agitation, with the aspirin-carrier mix. (c) Tablets were made using a 1/4 inch flat face punch with the following results: […]

Tablet weight = type: physicochemical; details: Example 6, aspirin tablets
Description: (d) The tablet weights were:

[4] = test system: enzyme complex in the human intestine; details: literature clinical / in vitro studies (Holzen); cited from earlier work
[5] = Sweetness and taste of isomaltulose
[6] = Tablet hardness: % weight loss on vibration in a container for 1 hour; type: physicochemical
Experimental: (e) Tablet hardness was then assessed. For an objective test, the tablets were vibrated in a container for 1 hour.

[7] = Acid hydrolysis of isomaltulose; type: physicochemical; details: 90 h at 58° C. in 2M HCl
[8] = Solubility in water of isomaltulose; type: physicochemical
[9] = Equilibrium relative humidity / water content of isomaltulose; type: physicochemical; details: 80% and 22° C.
[10] = Viscosity of isomaltulose solution in water; type: physicochemical; details: H2O
[11] = Reducing power of isomaltulose relative to glucose; type: physicochemical
[12] = Tablets made using a 1/4 inch flat face punch; type: physicochemical; details: Example 7, ascorbic acid tablets, in words

OC[C@H]1O[C@@](CO)(O[C@H]2O[C@H](CO)[C@@H](O)[C@H](O)[C@H]2O)[C@@H](O)[C@@H]1O [Sucrose]
Flowability, 100 g through 3/8" orifice, no agitation ([1]; Example 7, ascorbic acid mix): Agitation required

OC[C@H]1O[C@@H](O[C@H]2[C@H](O)[C@@H](O)C(O)O[C@@H]2CO)[C@H](O)[C@@H](O)[C@H]1O (stereo partly shown) [Lactose, reference compound]
tablet quality / tablet formation ([2]; Example 4(i), direct compression with gum arabic, saccharin tablets): not possible to produce coherent tablets
tablet formation ([2]; Example 4(ii), direct compression without binder, saccharin tablets): Tablets could not be made
Tablet making results [3]: Tablet machine prone to sticking
Time for 100 g of the tablet mix to flow through the 3/8 inch orifice funnel ([1]; Example 6, aspirin mix): No flow
Flowability, 100 g through 3/8" orifice, no agitation ([1]; Example 7, ascorbic acid mix): Agitation required

OC[C@H]1O[C@H](OC[C@H]2OC(O)(CO)[C@@H](O)[C@@H]2O)[C@H](O)[C@@H](O)[C@@H]1O (stereo partly drawn) [Isomaltulose, 6-O-(αglucopyranosyl)-D-fructofuranose]
tablet weights (Tablet weight): 151 mg
fate of the constituent monosaccharides (fructose and glucose) [4]: adsorbed, metabolized and otherwise behave as fructose and glucose derived from sucrose
hydrolysis by an enzyme complex in the human intestine [4]: readily hydrolyzed
taste ([5]; in words): pleasant, not very sweet, reasonably bland taste
sweetness (relative to sucrose sweetness at 7% w/v in water) ([5]; relative to sucrose, 7% w/v in water): 0.37
% weight loss on vibration (tablet hardness) ([6]; Example 6, aspirin tablets, vibrated 1 hour): 3.2%
Weight loss on vibration for 1 hour ([6]; Example 7, ascorbic acid tablets): 1.8%
tablet hardness ([6]; Example 7, ascorbic acid tablets, in words): not so well on tablet hardness; also recorded: not as hard as with the specially formulated carriers
binding power when formed into tablets ([2]; in words): unusually good binding power
fines during handling ([2]; tablets with isomaltulose as diluent versus comparable lactose tablets): often show less tendency to generate fines during handling
degraded at 90 h [7]: 40%
solubility in water compared with lactose ([8]; in words, versus lactose): better solubility in water than lactose
solubility ([8]; water, 30° C., H2O, read-out: solubility at 30° C., H2 O): 460 mg/mL (≈ 1340 mM)
water content at 80% equilibrium relative humidity and 22 °C [9]: 25-32 % water
viscosity at 25° C., 50% w/v, H2 O [10]: 6 cp
Tablet making results [3]: Tablets successfully made; also recorded: Released from die easily; also recorded: Good shiny appearance; also recorded: Good integrity
tablet making, comparison of carriers ([3]; in words): comparable with the Dipac and Emdex, and superior to the other carriers
reducing power [11]: 58-62 % of that of glucose
tablet quality [12]: shiny, hard and had good appearance; also recorded: clearly superior to the dextrose, lactose and sucrose
dental plaque formation (Streptococcus mutans): little if any dental plaque is formed
metabolism by Streptococcus mutans (Streptococcus mutans; preliminary studies): metabolized by Streptococcus mutans
flowability, comparison of carriers ([1]; Example 6, aspirin mix, in words): comparable with the specially prepared products Dipac and Emdex, and better than the lactose, icing sugar or anydrous dextrose
Time for 100 g of the tablet mix to flow through the 3/8 inch orifice funnel ([1]; Example 6, aspirin mix): 38 s
Flowability, 100 g through 3/8" orifice, no agitation ([1]; Example 7, ascorbic acid mix): 43 s
flowability ([1]; Example 7, ascorbic acid mix, in words): performed well on flowability

O=C[C@H](O)[C@@H](O)[C@H](O)[C@H](O)CO [Dextrose]
Flowability, 100 g through 3/8" orifice, no agitation ([1]; Example 7, ascorbic acid mix): Agitation required

OC[C@H]1OC(O)[C@H](O)[C@@H](O)[C@@H]1O (stereo partly shown) [Anhydrous dextrose, reference compound]
Tablet making results [3]: As (iv)
Time for 100 g of the tablet mix to flow through the 3/8 inch orifice funnel ([1]; Example 6, aspirin mix): No flow
